{
  "source": "ChEMBL document CHEMBL4507266",
  "about": "“Data for DCP probe BAY-784” (2021)",
  "key": {"Rattus norvegicus": {"species_on_record": "Rattus norvegicus", "assay": "Testosterone Eurofins-Panlabs radioligand binding assay", "parameters": "ligand concentration 1.5 nM", "settings": "Compound concentration 10.0 uM; call rule not given here"}, "[1]": {"biological_target": "T1, D(4) dopamine receptor (Homo sapiens) (UniProt P21917)", "T1 sequence (whole entry)": "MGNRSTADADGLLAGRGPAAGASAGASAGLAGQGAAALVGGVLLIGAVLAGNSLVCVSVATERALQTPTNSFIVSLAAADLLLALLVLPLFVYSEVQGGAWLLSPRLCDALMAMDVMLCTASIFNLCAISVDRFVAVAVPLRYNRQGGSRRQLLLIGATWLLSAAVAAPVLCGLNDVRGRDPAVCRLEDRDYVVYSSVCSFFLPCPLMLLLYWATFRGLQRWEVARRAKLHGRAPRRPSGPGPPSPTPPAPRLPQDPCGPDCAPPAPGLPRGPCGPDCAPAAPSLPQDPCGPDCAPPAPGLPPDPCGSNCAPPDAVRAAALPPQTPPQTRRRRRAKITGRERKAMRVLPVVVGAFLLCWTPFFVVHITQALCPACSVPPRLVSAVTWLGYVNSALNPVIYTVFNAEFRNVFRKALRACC", "assay": "Inhibition of Dopamine D4.2 at 10 µM in the Eurofins-Panlabs radioligand binding assay (Eurofins_assay_219900)", "parameters": "ligand concentration 0.5 nM", "settings": "Compound concentration 10.0 uM"}, "Mus musculus": {"species_on_record": "Mus musculus", "assay": "Inhibition of Phorbol Ester at 10 µM in the Eurofins-Panlabs radioligand binding assay (Eurofins_assay_264500)", "parameters": "ligand concentration 3 nM", "settings": "Compound concentration 10.0 uM"}, "[2]": {"biological_target": "Monoamine oxidase A (MAO-A) (Homo sapiens, UniProt P21397)", "sequence (P21397 whole entry)": "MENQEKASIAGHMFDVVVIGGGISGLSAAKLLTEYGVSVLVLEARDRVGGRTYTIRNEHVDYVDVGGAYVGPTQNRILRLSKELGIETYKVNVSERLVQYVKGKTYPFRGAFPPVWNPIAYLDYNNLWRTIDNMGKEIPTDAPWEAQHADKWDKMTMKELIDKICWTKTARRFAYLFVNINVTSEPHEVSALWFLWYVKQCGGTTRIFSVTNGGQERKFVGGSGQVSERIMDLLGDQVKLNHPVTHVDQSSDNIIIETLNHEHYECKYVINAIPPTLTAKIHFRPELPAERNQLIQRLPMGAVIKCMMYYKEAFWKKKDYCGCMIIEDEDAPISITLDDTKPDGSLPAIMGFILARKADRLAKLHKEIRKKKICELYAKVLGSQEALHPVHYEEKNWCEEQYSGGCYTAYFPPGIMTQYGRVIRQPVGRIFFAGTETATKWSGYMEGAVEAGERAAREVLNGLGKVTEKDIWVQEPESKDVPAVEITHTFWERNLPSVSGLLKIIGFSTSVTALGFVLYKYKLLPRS", "assay": "Inhibition of Monoamine Oxidase MAO-A at compound concentration of 10.0 uM in the Eurofins-Panlabs enzyme assay (Eurofins_assay_140010)", "parameters": "substrate with concentration 50 uM Kynuramine, incubation time 60 min, incubation temperature 37 C", "settings": "recombinant human MAO-A expressed in insect Hi5 cells, probe Kynuramine, 50 uM, compound concentration 10 uM"}, "[3]": {"biological_target": "Phosphodiesterase 3 (Homo sapiens) (UniProt Q14432+Q13370)", "assay": "Inhibition of Phosphodiesterase PDE3 at compound concentration of 10.0 uM in the Eurofins-Panlabs enzyme assay (Eurofins_assay_152000)", "type": "protein assay", "parameters": "substrate with concentration 1.01 uM [3H] cAMP + cAMP, incubation time 20 min, incubation temperature 25 C", "settings": "Compound concentration 10.0 uM"}, "[4]": {"biological_target": "Mitogen-activated protein kinase 1 (Homo sapiens) (UniProt P28482)", "sequence (P28482 whole entry)": "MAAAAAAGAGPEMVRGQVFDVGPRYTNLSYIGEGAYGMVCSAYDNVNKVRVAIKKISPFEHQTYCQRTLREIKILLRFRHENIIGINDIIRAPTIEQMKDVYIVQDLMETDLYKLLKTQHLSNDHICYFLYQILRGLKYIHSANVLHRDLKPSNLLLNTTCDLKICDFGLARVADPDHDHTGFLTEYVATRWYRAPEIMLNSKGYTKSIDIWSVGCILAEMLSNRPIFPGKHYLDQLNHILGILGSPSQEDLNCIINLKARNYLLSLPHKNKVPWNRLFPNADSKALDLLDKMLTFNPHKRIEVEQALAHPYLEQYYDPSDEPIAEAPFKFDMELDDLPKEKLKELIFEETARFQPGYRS", "assay": "Inhibition of Protein Serine/Threonine Kinase, MAPK1 (ERK2) at 10 µM in the Eurofins-Panlabs enzyme assay (Eurofins_assay_171120)", "parameters": "substrate with concentration", "settings": "Compound concentration 10.0 uM"}, "[5]": {"biological_target": "C-X-C chemokine receptor type 2 (Homo sapiens) (UniProt P25025)", "sequence (P25025 whole entry)": "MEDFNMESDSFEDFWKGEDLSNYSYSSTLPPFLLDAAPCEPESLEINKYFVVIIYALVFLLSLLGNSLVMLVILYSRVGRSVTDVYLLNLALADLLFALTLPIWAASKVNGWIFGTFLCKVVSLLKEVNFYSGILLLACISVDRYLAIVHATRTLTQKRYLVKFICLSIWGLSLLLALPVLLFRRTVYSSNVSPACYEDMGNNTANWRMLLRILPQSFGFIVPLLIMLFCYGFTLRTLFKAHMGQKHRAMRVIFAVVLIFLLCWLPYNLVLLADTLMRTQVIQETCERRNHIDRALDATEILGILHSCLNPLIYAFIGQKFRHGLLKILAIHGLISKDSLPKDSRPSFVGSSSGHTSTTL", "assay": "Inhibition of Chemokine CXCR2 (IL-8RB) at 10 µM in the Eurofins-Panlabs radioligand binding assay (Eurofins_assay_244500)", "settings": "Compound concentration 10.0 uM"}, "[6]": {"biological_target": "T2, 5-hydroxytryptamine receptor 3A (Homo sapiens) (UniProt P46098)", "T2 sequence (whole entry)": "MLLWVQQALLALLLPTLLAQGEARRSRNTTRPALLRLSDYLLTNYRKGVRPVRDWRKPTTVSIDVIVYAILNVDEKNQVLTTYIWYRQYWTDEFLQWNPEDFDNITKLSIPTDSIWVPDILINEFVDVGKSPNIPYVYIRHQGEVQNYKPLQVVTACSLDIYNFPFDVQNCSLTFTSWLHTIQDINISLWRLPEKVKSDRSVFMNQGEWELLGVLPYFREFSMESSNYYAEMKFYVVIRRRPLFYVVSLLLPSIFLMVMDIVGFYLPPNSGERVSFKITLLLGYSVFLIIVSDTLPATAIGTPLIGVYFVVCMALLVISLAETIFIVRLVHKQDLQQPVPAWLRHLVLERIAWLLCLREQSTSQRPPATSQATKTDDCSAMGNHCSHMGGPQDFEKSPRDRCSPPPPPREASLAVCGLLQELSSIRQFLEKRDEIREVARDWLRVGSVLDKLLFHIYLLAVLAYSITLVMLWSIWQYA", "assay": "Inhibition of Serotonin (5-Hydroxytryptamine) 5-HT3 at 10 µM in the Eurofins-Panlabs radioligand binding assay (Eurofins_assay_271910)", "parameters": "ligand concentration 0.69 nM", "settings": "Compound concentration 10.0 uM"}, "[7]": {"biological_target": "Vasoactive intestinal polypeptide receptor 1 (Homo sapiens) (UniProt P32241)", "sequence (P32241 whole entry)": "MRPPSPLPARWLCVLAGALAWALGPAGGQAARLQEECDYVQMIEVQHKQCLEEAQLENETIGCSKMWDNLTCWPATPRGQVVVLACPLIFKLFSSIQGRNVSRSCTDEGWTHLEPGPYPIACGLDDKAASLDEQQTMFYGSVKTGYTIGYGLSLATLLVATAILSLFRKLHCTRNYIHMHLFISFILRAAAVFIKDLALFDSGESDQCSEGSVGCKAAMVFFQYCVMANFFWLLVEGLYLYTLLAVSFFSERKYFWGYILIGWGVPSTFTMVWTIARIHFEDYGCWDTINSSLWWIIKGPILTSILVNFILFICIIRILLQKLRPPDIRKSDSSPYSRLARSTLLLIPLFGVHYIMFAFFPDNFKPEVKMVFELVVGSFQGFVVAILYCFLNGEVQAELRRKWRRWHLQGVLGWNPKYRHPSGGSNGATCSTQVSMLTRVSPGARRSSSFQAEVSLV", "assay": "Inhibition of Vasoactive Intestinal Peptide VIP1 at 10 µM in the Eurofins-Panlabs radioligand binding assay (Eurofins_assay_287010)", "settings": "Compound concentration 10.0 uM"}, "[8]": {"biological_target": "Adenosine receptor A1 (Homo sapiens) (UniProt P30542)", "sequence (P30542 whole entry)": "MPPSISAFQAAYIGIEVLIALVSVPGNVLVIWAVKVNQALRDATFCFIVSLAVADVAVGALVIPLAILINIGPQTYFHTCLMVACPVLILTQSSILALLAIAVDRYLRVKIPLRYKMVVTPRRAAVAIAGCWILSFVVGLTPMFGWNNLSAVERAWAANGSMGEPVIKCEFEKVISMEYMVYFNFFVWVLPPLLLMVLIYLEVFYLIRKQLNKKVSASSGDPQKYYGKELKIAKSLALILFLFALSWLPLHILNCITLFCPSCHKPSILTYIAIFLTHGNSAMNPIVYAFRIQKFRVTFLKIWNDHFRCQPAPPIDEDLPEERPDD", "settings": "Compound concentration 10.0 uM"}, "[9]": {"biological_target": "T3, Muscarinic acetylcholine receptor M1 (Homo sapiens) (UniProt P11229)", "T3 sequence (whole entry)": "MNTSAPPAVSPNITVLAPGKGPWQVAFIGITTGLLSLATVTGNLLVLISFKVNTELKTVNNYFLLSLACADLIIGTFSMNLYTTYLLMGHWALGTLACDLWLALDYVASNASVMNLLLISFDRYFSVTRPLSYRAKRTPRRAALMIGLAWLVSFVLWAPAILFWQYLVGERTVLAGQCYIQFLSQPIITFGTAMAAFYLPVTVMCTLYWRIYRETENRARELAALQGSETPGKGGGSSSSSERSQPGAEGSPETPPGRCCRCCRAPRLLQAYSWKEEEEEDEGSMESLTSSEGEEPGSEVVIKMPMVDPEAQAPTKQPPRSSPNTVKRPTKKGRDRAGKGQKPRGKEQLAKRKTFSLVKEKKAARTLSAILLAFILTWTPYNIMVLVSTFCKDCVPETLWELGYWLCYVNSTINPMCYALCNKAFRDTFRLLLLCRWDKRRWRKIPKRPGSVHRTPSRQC", "settings": "Compound concentration 10.0 uM"}, "[10]": {"biological_target": "T4, Muscarinic acetylcholine receptor M2 (Homo sapiens) (UniProt P08172)", "T4 sequence (whole entry)": "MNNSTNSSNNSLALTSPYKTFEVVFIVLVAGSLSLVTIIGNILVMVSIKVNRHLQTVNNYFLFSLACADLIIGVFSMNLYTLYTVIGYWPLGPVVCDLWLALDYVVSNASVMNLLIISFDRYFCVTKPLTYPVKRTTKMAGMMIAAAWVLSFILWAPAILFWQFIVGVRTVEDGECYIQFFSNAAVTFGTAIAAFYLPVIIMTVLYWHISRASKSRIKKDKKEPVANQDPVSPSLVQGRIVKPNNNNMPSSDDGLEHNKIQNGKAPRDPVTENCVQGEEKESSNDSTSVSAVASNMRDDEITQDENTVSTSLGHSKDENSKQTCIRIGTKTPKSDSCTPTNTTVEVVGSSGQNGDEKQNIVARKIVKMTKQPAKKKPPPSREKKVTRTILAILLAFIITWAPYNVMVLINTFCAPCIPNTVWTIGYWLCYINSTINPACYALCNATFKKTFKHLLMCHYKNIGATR", "settings": "Compound concentration 10.0 uM"}, "[11]": {"biological_target": "Sodium-dependent dopamine transporter (Homo sapiens) (UniProt Q01959)", "sequence (Q01959 whole entry)": "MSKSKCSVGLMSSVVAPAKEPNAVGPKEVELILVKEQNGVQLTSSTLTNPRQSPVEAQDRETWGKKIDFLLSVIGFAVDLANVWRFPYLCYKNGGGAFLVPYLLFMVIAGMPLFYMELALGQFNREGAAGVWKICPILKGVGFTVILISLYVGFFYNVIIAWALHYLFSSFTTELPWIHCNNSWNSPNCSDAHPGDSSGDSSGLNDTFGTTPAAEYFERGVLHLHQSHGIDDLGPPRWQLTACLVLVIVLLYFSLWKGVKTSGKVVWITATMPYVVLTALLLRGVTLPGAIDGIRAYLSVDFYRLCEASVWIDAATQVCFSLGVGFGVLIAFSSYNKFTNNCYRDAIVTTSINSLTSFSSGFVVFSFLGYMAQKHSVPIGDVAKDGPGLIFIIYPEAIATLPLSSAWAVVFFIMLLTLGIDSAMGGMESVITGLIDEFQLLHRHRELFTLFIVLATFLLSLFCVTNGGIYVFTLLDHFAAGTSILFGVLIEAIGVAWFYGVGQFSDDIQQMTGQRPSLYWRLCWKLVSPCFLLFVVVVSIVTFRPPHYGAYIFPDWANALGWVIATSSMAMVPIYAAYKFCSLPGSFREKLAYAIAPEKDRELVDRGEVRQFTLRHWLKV", "settings": "Compound concentration 10.0 uM"}, "[12]": {"biological_target": "GABA-A receptor; anion channel (Rattus norvegicus) (UniProt O09028+P15431+P18506+P18508+P19969+P20236+P23574+P23576+P28471+P28473+P30191+P62813+P63079+P63138+Q91ZM7+Q9ES14)", "settings": "Compound concentration 10.0 uM"}},
  "data": [
    {"smiles": "O=C(NCc1ncc(C(F)(F)F)cc1Cl)c1ccc2c(c1)C1(CCS(=O)(=O)CC1)[C@H](C1CC1)N2S(=O)(=O)c1ccc(F)cc1", "note": "[BAY-784]", "values": [
      {"measurement": "inhibition", "setting": "Rattus norvegicus", "result": 16, "unit": "%"},
      {"measurement": "inhibition", "setting": "[1]", "result": 11, "unit": "%"},
      {"measurement": "inhibition", "setting": "Mus musculus", "result": 1, "unit": "%"},
      {"measurement": "inhibition at 60 min, 10 µM", "setting": "[2]", "result": "3% (not active)"},
      {"measurement": "inhibition", "setting": "[3]", "result": 9, "unit": "%"},
      {"measurement": "inhibition", "setting": "[4]", "result": 53, "unit": "%"},
      {"measurement": "inhibition", "setting": "[5]", "result": 14, "unit": "%"},
      {"measurement": "inhibition", "setting": "[6]", "result": 19, "unit": "%"},
      {"measurement": "inhibition", "setting": "[7]", "result": 2, "unit": "%"},
      {"measurement": "inhibition", "setting": "[8]", "result": 15, "unit": "%"},
      {"measurement": "inhibition", "setting": "[9]", "result": 5, "unit": "%"},
      {"measurement": "inhibition", "setting": "[10]", "result": -3, "unit": "%"},
      {"measurement": "inhibition", "setting": "[11]", "result": 25, "unit": "%"},
      {"measurement": "inhibition", "setting": "[12]", "result": 34, "unit": "%"}
    ]}
  ]
}
